Several values for one entry are separate records, joined by “and”; a condition that tells them apart may be missing. Identical values can stand only once.
How the values were obtained:
[1] = tested on: MCF7 (breast adenocarcinoma); experiment: MTT cell viability assay, MCF7; assay type: cell-based, Human; settings: 24 h of incubation, read-out: IC50 ± SD on MCF7
Method: (§1) Cell viability studies were determined by the MTT assay for complexes 1–8 toward MCF7 (breast adenocarcinoma), MDA-MB-231 (triple-negative breast adenocarcinoma), MG-63 (osteosarcoma), and HT-29 (colorectal carcinoma) after 24 h of incubation with new ruthenium compounds. Cisplatin was used as antitumor clinical reference. The three solid tumors selected for the cell viability study were chosen due to high incidence and the low efficacy of the current treatments. The two breast cancer cell lines used in this study represent two of the most relevant subtypes of breast cancer (MCF7: receptor-estrogen-positive breast cancer subtype; MDA-MB-231: triple-negative breast cancer subtype).
(§2) Human breast cancer cell lines (MCF-7 and MDA-MB-231), human bone cancer cell line (MG-63), and human colorectal cancer cell line (HT-29) were grown in Dulbecco’s modified Eagle’s medium (DMEM) containing 10% fetal bovine serum (FBS), 100 IU/mL penicillin, and 100 μg/mL streptomycin at 37 °C in 5% CO2 atmosphere. These cancer cell lines were grown in a […] until they reached 70–80% confluence. Then, the cells were subcultured using TrypLE TM. For experiments, cells were grown in multi-well plates. Dulbecco’s modified Eagle’s medium (DMEM) and TrypLE^TM were purchased from Gibco (Gaithersburg, MD, USA), and fetal bovine serum (FBS) was purchased from Internegocios (Argentina). After 24 h, the monolayers were washed with DMEM and incubated under different conditions according to the experiments. Tissue culture materials were purchased from Corning (Princeton, NJ, USA).
(§3) The 3-(4,5-dimethylthiazol-2-yl)-2,5-diphenyltetrazolium bromide (MTT) assay was performed according to Mosmann. Briefly, cells were seeded in a 96-well dish, allowed to attach for 24 h, and treated with different concentrations of complexes […] (2.5–100 µM) at 37 °C for 24 h. Afterward, the medium was changed and the cells were incubated with 0.5 mg/mL MTT under normal culture conditions for 3 h. Cell viability was marked by conversion of the tetrazolium salt MTT to a colored formazan by mitochondrial dehydrogenases. Color development was measured spectrophotometrically with a microplate reader multiskan FC (Thermo scientific) at 570 nm after cell lysis in DMSO (100 µL per well). Cell viability was plotted as the percentage of the control value.

[2] = molecular target: Glutathione S-transferase from horse liver (GST); experiment: GST inhibition assay; assay type: biochemical; settings: for Ki: Dixon plots, substrate 200, 400, 800 μM; for IC50 / GST IC50: substrate 1-chloro-2,4-dinitrobenzene, pH 6.5, 25 °C
Method: The activity of GST was measured according to the method described by Habig et al. (1974). Stock solutions of 1–8 (1 mg/mL) were prepared in 100% methanol (MeOH). Then, stock solutions of 1–8 and negative controls were added to the wells and progressively diluted in 100 mM sodium phosphate buffer (pH 6.5) at a final volume of 50 μL. 1-Chloro-2,4-dinitrobenzene (Sigma-Aldrich Co., St. Louis, MO, USA) was dissolved in EtOH to obtain a 50 mM solution, then diluted with 100 mM sodium phosphate buffer (pH 6.5) to a final concentration of 4 mM. This solution (50 μL) and solution of 2 mM reduced glutathione (100 μL), dissolved in the same buffer were added into the microtiter plate wells. Glutathione S-transferase from horse liver (GST; Sigma-Aldrich Co., St. Louis, MO, USA) was used as the source of enzyme and dissolved in 100 mM sodium phosphate buffer (pH 6.5). 50 μL of enzyme solution was added into wells to start the reaction. The final enzyme concentration was 0.044 U/mL. A blank reaction was performed with the appropriate dilution of MeOH. The reaction was followed spectrophotometrically at 340 nm and at 25 °C for 4 min using a Cytation 3 cell imaging multi-mode reader from BioTek (BioTek, Winooski, VT, USA). Each measurement was repeated at least three times. For determination of inhibitory constants (Ki), the kinetics were monitored using three different final substrate concentrations (200, 400, and 800 μM, respectively).

MG-63 (osteosarcoma) = experiment: MTT cell viability assay, MG-63; assay type: cell-based, Human; settings: 24 h of incubation, read-out: IC50 ± SD on MG-63
Method: as §1, §2, §3

[3] = tested on: MDA-MB-231 (triple-negative breast adenocarcinoma); experiment: MTT cell viability assay, MDA-MB-231; assay type: cell-based, Human; settings: for IC50: MTT, 24 h of incubation, read-out: IC50 ± SD on MDA-MB-231
Method: as §1, §2, §3

[4] = tested on: HT-29 (colorectal carcinoma); experiment: MTT cell viability assay, HT-29; assay type: cell-based, Human; settings: for IC50: 24 h of incubation, read-out: IC50 ± SD on HT-29
Method: as §1, §2, §3

[5] = tested on: MCF7, MDA-MB-231, MG-63, and HT-29 cell lines; experiment: MTT cell viability assay, all cell lines tested; assay type: cell-based, Human; settings: 24 h, span over all cell lines, read-out: IC50 in all cancer cell lines tested
Method: as §1
Human breast cancer cell lines (MCF-7 and MDA-MB-231), human bone cancer cell line (MG-63), and human colorectal cancer cell line (HT-29) were grown in Dulbecco’s modified Eagle’s medium (DMEM) containing 10% fetal bovine serum (FBS), 100 IU/mL penicillin, and 100 μg/mL streptomycin at 37 °C in 5% CO2 atmosphere. These cancer cell lines were grown in a […] until they reached 70–80% confluence. […]
The 3-(4,5-dimethylthiazol-2-yl)-2,5-diphenyltetrazolium bromide (MTT) assay was performed according to Mosmann. […] Color development was measured spectrophotometrically with a microplate reader multiskan FC (Thermo scientific) at 570 nm after cell lysis in DMSO (100 µL per well). […]

| Compound | IC50 [1] | Ki [2] | IC50 [2] | IC50 (MG-63 (osteosarcoma)) | IC50 [3] | IC50 fold lower than cisplatin on MDA-MB-231 cells ([3]; versus cisplatin) | IC50 ([4]; MTT) | IC50 fold lower than cisplatin on HT-29 cells ([4]; versus cisplatin) | IC50 [5] | GST IC50 [2] | anticancer effect on colorectal cancer cells ([4]; MTT, 24 h) |
| --- | --- | --- | --- | --- | --- | --- | --- | --- | --- | --- | --- |
| C1=CC2=[S][Ru+]([P](c3ccccc3)(c3ccccc3)c3ccccc3)[O]N2C=C1.Cc1ccc(C(C)C)cc1.F[P-](F)(F)(F)(F)F [Compound 6, [(η^6-p-cym)Ru(κ^2-O,S-C5H4NOS)(PPh3)]PF6] | 21.2 ± 3.2 µM | 1.3 µM | 11.8 ± 1.1 µM | 21.2 ± 1.7 µM | 10.8 ± 1 µM | twelve-fold | 30.2 ± 1.4 µM | six-fold | – | – | – |
| N.N.[Cl][Pt][Cl] [Cisplatin, reference compound] | 42 ± 3.2 µM | – | – | 39 ± 1.8 µM | 131 ± 18 µM | – | 180 ± 6 µM | – | – | – | – |
| Cc1ccc(C(C)C)cc1.[Cl-].[O-]n1ccccc1=S.[Ru+2] [Compound 1, [(η^6-cymene)(Ru)(pyrithionato)Cl]] | > 100 µM | 0.75 µM | 3.15 ± 2.5 µM | > 100 µM | > 100 µM | – | > 100 µM | – | – | – | – |
| C1=CC2=[S][Ru+]([As](c3ccccc3)(c3ccccc3)c3ccccc3)[O]N2C=C1.Cc1ccc(C(C)C)cc1.F[P-](F)(F)(F)(F)F [Compound 8, [(η^6-p-cym)Ru(κ^2-O,S-C5H4NOS)(AsPh3)]PF6] | 35.3 ± 12.1 µM | 0.74 µM | 2.15 ± 0.4 µM | 50.3 ± 2.5 µM | 35.8 ± 11.4 µM | – | 40.8 ± 8.5 µM | – | 35 to 50 µM | – | – |
| CCO[P](OCC)(OCC)[Ru+]1[O]N2C=CC=CC2=[S]1.Cc1ccc(C(C)C)cc1.F[P-](F)(F)(F)(F)F [Compound 4, [(η^6-p-cym)Ru(κ^2-O,S-C5H4NOS)(P(OEt)3)]PF6] | 45 µM and 45.5 µM | – | 59.5 ± 0.9 µM | > 100 µM | > 100 µM | – | > 100 µM | – | – | – | – |
| C1N2CN3CN1CP(C2)C3.Cc1ccc(C(C)C)cc1.F[P-](F)(F)(F)(F)F.[O-]n1ccccc1=S.[Ru+2] [Compound 2, [(η^6-cymene)(Ru)(pyrithionato)(pta)]PF6] | > 100 µM | – | – | > 100 µM | > 100 µM | – | > 100 µM | – | – | / (no inhibitory activity in tested concentration range (<125 µg/mL)) | – |
| [(η^6-p-cym)Ru(κ^2-O,S-C5H4NOS)(cap)]PF6 [Compound 3] | > 100 µM | – | – | > 100 µM | > 100 µM | – | > 100 µM | – | – | / (no inhibitory activity in tested concentration range (<125 µg/mL)) | – |
| C1=CC2=[S][Ru+]([P](Oc3ccccc3)(Oc3ccccc3)Oc3ccccc3)[O]N2C=C1.Cc1ccc(C(C)C)cc1.F[P-](F)(F)(F)(F)F [Compound 7, [(η^6-p-cym)Ru(κ^2-O,S-C5H4NOS)(P(OPh)3)]PF6] | 33.7 ± 6.3 µM | 3.67 µM | 2.88 ± 0.9 µM | 28.2 ± 2.5 µM | 18 ± 1.7 µM | – | > 100 µM | – | – | – | did not exert anticancer effect |

From PMC10058425, “Exploring pta Alternatives in the Development of Ruthenium–Arene Anticancer Compounds” (Molecules, 2023)
